# Read-outs that look alike come from different tables or passages of the source.
# Legend:
# E. faecalis ATCC 29212 [1] = test: Broth microdilution MIC; type: cell-based, Enterococcus faecalis; conditions: for MIC: Enterococcus faecalis, ATCC29212, E. faecalis ATCC 29212
# S. aureus ATCC 29213 [2] = test: Broth microdilution MIC; type: cell-based; conditions: Staphylococcus aureus, ATCC29213, S. aureus ATCC 29213
# S. aureus ATCC 12598 = test: Broth microdilution MIC; type: cell-based, Staphylococcus aureus; conditions: Staphylococcus aureus, ATCC12598, S. aureus ATCC 12598; substance alone; read-out: MIC
# [3] = test system: S. aureus ATCC BAA-1556 USA300; test: Broth microdilution MIC; type: cell-based, Staphylococcus aureus; conditions: Staphylococcus aureus, S. aureus ATCC BAA-1556 USA300; substance alone
# [4] = test system: K. pneumoniae ATCC 700603; test: Broth microdilution MIC; type: cell-based, Klebsiella pneumoniae
# A. baumannii ATCC 17978 = test: Broth microdilution MIC; type: cell-based; conditions: Acinetobacter baumannii, ATCC17978, substance alone
# P. aeruginosa ATCC 27853 [5] = test: Broth microdilution MIC; type: cell-based, Pseudomonas aeruginosa; conditions: for MIC: Pseudomonas aeruginosa, ATCC27853, P. aeruginosa ATCC 27853
# S. enterica ATCC 14028 = test: Broth microdilution MIC; type: cell-based; conditions: Salmonella enterica, ATCC14028, substance alone
# E. coli ATCC 25922 [6] = test: Broth microdilution MIC; type: cell-based; conditions: Escherichia coli
# [7] = test system: CaCo-2 (ATCC HTB-37) colon–rectal cancer cell line; test: MTT cytotoxicity assay on CaCo-2 cells; type: cell-based, human; conditions: CaCo-2
# Description: To fully assess the biological activity of the new molecules, they were tested at different concentrations on the CaCo-2 (ATCC HTB-37) colon–rectal cancer cell line. These human cancer cells were exposed to compound solutions ranging in concentration from 100 µM to 0.01 µM. As a reference compound for these assays, we used 5-Fluorouracil (5-FU), a pyrimidine analog from the antimetabolite family.
# The MTT assay was also performed for the selected antibiotics to evaluate the effect of their combined treatment with PB4.
# To evaluate the effect of the heteroaryl ethylene compounds and the antibiotics, an MTT ([3-(4,5-dimethylthiazol-2-yl)-2,5-diphenyltetrazolium bromide]) assay was performed as previously described. […] Both concentrations were also tested in combination with PB4 0.2 µM. All antibiotics were provided by Thermo Scientific^TM Oxoid^TM, Basingstoke, UK. Twenty-four hours after plating, the cells were treated with 20 μL of each solution. Untreated cells were used as controls. […] The IC50 values were calculated by nonlinear regression analysis using GraphPad Prism 6.0 software.
# E. faecalis ATCC 29212 [8] = test system: E. faecalis ATCC 29212; design: method as in earlier work; conditions: quality control range, ref CLSI; cited from earlier work
# S. aureus ATCC 29213 [9] = test system: S. aureus ATCC 29213; design: method as in earlier work; conditions: quality control range, ref CLSI; cited from earlier work
# P. aeruginosa ATCC 27853 [10] = test system: P. aeruginosa ATCC 27853; design: method as in earlier work; conditions: quality control range, ref CLSI; cited from earlier work
# E. coli ATCC 25922 [11] = test system: E. coli ATCC 25922; design: method as in earlier work; conditions: quality control range, ref CLSI; cited from earlier work
# [12] = quality control strain, technical positive control, read-out: MIC (quality control)
compound,measurement,setting,value
"CNC(C)C1CCC(N)C(OC2C(N)CC(N)C(OC3OCC(C)(O)C(NC)C3O)C2O)O1 (stereo not shown) [Gentamicin, gentamicin, reference compound]",Reduction of antibiotic MIC by PB4,"E. faecalis ATCC 29212 [1]; E. faecalis ATCC 29212, antibiotic + PB4 vs antibiotic alone",2 -fold log reduction
same,MIC,E. faecalis ATCC 29212 [1]; [12],8 µg/mL
same,MIC,"E. faecalis ATCC 29212 [1]; substance alone, read-out: MIC",4 µg/mL
same,MIC,S. aureus ATCC 29213 [2]; [12],0.5 µg/mL
same,MIC,"S. aureus ATCC 29213 [2]; substance alone, read-out: MIC",0.5 µg/mL
same,MIC,S. aureus ATCC 12598,0.5 µg/mL
same,MIC,[3],0.5 µg/mL
same,Reduction of antibiotic MIC by PB4,"[4]; K. pneumoniae ATCC 700603, antibiotic + PB4 vs antibiotic alone",2 -fold log MIC reductions
same,MIC,"[4]; Klebsiella pneumoniae, ATCC700603, K. pneumoniae ATCC 700603, substance alone, read-out: MIC",8 µg/mL
same,MIC,A. baumannii ATCC 17978,2 µg/mL
same,Reduction of antibiotic MIC by PB4,"P. aeruginosa ATCC 27853 [5]; P. aeruginosa ATCC 27853, antibiotic + PB4 vs antibiotic alone",2 -fold log MIC reductions
same,MIC,P. aeruginosa ATCC 27853 [5]; [12],2 µg/mL
same,MIC,"P. aeruginosa ATCC 27853 [5]; substance alone, read-out: MIC",2 µg/mL
same,MIC,S. enterica ATCC 14028,1 µg/mL
same,MIC,"E. coli ATCC 25922 [6]; ATCC25922, quality control strain, technical positive control, read-out: MIC (quality control)",0.5 µg/mL
same,MIC,"E. coli ATCC 25922 [6]; ATCC25922, substance alone, read-out: MIC",0.5 µg/mL
same,"Percentage of cell growth, antibiotic","[7]; antibiotic alone at MIC for E. faecalis ATCC 29212, 24 h",158.2%
same,"Percentage of cell growth, antibiotic","[7]; antibiotic alone at MIC for E. faecalis ATCC 29212, 48 h",247.5%
same,"Percentage of cell growth, antibiotic","[7]; antibiotic alone at sub-MIC (half-MIC), 24 h",132.3%
same,"Percentage of cell growth, antibiotic","[7]; antibiotic alone at sub-MIC (half-MIC), 48 h",271.7%
same,"Percentage of cell growth, antibiotic + PB4 0.2 µM","[7]; antibiotic at MIC + PB4 0.2 µM, 24 h",125.6%
same,"Percentage of cell growth, antibiotic + PB4 0.2 µM","[7]; antibiotic at MIC + PB4 0.2 µM, 48 h",141.1%
same,"Percentage of cell growth, antibiotic + PB4 0.2 µM","[7]; antibiotic at sub-MIC + PB4 0.2 µM, 24 h",132.4%
same,"Percentage of cell growth, antibiotic + PB4 0.2 µM","[7]; antibiotic at sub-MIC + PB4 0.2 µM, 48 h",99.2%
same,MIC CLSI Range,E. faecalis ATCC 29212 [8],4 to 16 µg/mL
same,MIC CLSI Range,S. aureus ATCC 29213 [9],0.125 to 1 µg/mL
same,MIC CLSI Range,P. aeruginosa ATCC 27853 [10],0.5 to 2 µg/mL
same,MIC CLSI Range,E. coli ATCC 25922 [11],0.25 to 1 µg/mL
